Marks after values point to notes of the source that are not given here.
Key:
[1] = target: T1, Porcine ventricle myofibrils (ventricular myosin ATPase) (Sus scrofa, UniProt P79293); assay: Myofibril ATPase assay, porcine ventricle myofibrils; assay type: biochemical, porcine (Yucatan minipigs); conditions: porcine ventricle myofibrils
T1 construct: Myofibrils from porcine cardiac muscle was isolated from the left ventricle of Yucatan minipigs; tissue Exemplar Genetics; host or cells: left ventricle of Yucatan minipigs, myofibrils prepared in house
T1 sequence (P79293 whole entry): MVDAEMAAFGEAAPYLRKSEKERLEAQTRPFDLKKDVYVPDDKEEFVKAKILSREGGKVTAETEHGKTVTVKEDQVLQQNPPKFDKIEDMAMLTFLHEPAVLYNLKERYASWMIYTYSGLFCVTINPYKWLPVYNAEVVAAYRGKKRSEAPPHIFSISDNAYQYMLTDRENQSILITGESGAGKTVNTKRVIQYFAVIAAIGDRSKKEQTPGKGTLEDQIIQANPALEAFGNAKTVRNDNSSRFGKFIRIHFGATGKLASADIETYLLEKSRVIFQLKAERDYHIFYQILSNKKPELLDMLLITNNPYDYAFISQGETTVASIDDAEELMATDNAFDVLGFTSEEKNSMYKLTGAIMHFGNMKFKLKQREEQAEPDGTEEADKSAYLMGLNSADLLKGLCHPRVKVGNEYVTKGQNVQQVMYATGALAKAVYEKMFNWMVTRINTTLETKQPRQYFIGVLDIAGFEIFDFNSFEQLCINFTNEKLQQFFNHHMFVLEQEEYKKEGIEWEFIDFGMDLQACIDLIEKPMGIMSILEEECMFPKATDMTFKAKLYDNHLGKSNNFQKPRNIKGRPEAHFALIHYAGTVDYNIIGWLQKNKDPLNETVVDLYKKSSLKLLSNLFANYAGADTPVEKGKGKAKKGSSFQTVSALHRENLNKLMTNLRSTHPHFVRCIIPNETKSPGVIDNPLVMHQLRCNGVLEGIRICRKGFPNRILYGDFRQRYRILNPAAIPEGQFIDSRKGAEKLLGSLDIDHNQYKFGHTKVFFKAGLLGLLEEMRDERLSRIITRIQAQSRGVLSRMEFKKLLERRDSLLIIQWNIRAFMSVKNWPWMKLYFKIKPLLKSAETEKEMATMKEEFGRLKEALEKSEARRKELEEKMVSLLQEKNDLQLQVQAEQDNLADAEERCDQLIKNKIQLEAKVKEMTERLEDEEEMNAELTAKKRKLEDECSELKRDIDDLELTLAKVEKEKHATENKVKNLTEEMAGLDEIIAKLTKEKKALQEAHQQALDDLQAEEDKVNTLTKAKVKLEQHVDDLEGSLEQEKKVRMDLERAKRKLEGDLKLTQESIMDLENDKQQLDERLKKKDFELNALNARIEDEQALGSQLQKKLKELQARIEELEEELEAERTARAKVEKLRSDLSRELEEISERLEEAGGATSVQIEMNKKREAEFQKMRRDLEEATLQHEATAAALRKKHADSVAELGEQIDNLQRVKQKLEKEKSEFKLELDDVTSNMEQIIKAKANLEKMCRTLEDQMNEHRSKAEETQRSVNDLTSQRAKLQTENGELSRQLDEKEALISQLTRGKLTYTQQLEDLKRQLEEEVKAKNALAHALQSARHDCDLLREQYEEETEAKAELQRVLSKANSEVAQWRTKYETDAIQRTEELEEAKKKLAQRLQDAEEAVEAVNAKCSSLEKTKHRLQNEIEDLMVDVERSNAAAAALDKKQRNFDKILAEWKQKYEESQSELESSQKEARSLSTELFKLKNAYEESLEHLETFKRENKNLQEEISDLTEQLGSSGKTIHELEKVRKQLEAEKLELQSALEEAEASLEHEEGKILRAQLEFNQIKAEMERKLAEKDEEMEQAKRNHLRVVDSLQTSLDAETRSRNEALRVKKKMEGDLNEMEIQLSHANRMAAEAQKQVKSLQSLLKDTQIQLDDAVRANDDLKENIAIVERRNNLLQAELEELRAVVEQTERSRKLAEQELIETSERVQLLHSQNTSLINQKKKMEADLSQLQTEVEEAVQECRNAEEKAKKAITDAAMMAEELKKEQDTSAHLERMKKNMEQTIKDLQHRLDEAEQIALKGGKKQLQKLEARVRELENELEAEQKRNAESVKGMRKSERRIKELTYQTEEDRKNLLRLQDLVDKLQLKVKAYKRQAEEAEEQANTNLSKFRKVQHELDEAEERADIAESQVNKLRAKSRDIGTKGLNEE
How it was run: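 ATPase activity of porcine left-ventricular myofibrils is tracked as the slope of NADH loss at 340 nm through a PK/LDH couple. Values are the concentrations that bring activity to 75% (inhibitors) or 125% (activators) of vehicle.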

[2] = system: Rabbit Psoas myofibrils (skeletal myosin ATPase); assay: Myofibril ATPase assay, rabbit psoas (skeletal) myofibrils; assay type: biochemical; conditions: rabbit psoas myofibrils
How it was run: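 Values derive from concentration–response fits of NADH consumption rates at 340 nm, normalized to vehicle-only wells, as Y75 or Y125. Myofibril ATP turnover was linked to NADH via PK/LDH in Ca/EGTA-buffered PIPES, pH 7.0, and read over 75 min.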

[3] = system: Porcine atria myofibrils (atrial myosin ATPase); assay: Myofibril ATPase assay, porcine atria myofibrils; assay type: biochemical; conditions: porcine atria myofibrils
How it was run: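 Atrial myofibril ATPase measured by NADH-coupled absorbance at 340 nm; vehicle-normalized slopes fitted to give Y75 or Y125 values.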

[4] = Y75 value (75% activity relative to no compound)

Row | Ventricular EC25 ([1]; Y75 value (no ‡ mark)) [µM] | Skeletal EC25 ([2]; Y75 value (no ‡ mark)) [µM] | Atrial EC25 ([3]; Y75 value (no ‡ mark)) [µM] | Ventricular EC25 ([1]; Y75 value) [µM] | Skeletal EC25 ([2]; Y75 value) [µM] | Atrial EC25 [3, 4] [µM] | Atrial EC25 (Y125 value, marked ‡) ([3]; Y125 value (125% activity), not a Y75 value) | SMILES
1 | 100.00 | 0.09 | 0.13 | – | – | – | – | C[C@H](NC(=O)[C@@H](C)c1c(C(F)(F)F)c2cc(F)ccc2[nH]c1=O)c1ccc(F)cc1F (single isomer, unassigned) [compound 99]
2 | 100.00 | 100.00 | 100.00 | – | – | – | – | C[C@H](NC(=O)Cc1cc2cc(F)c(F)cc2[nH]c1=O)c1ncc(C#N)cn1 (single isomer, unassigned) [compound 2036]
3 | – | – | – | 100.00 | 0.19 | 0.49 | – | Cc1ccc2[nH]c(=O)c(CC(=O)N[C@@H](C)c3ccc(F)cc3F)c(C(F)(F)F)c2n1 [compound 419]
4 | – | – | – | 2.17 | 100.00 | 0.14 | – | COc1nccc2[nH]c(=O)c(CC(=O)N[C@H](C)c3ncc(C#N)cc3F)c(C(F)(F)F)c12 (single isomer, unassigned) [compound 3009]
5 | – | – | – | 100.00 | 100.00 | – | 77.22‡ μM | C[C@H](NC(=O)Cc1c(C(F)(F)F)c2c(C3CC3)nccc2[nH]c1=O)c1ccc(C#N)cn1 (single isomer, unassigned) [compound 3006]
6 | 0.42 | 0.12 | 0.07 | – | – | – | – | Cc1c(CC(=O)N[C@H](C)c2ccc(C#N)cn2)c(=O)[nH]c2ccc(F)c(F)c12 [compound 45]
7 | 5.31 | 0.79 | 2.88 | – | – | – | – | C[C@@H](NC(=O)Cc1cc2c(C#N)cccc2[nH]c1=O)c1ncc(C#N)cn1 (single isomer, unassigned) [compound 2037]
8 | – | – | – | 100.00 | 100.00 | 100.00 | – | COc1ccc([C@H](C)NC(=O)Cc2c(C)c3c(C)nccc3[nH]c2=O)cn1 (single isomer, unassigned) [compound 291]
9 | – | – | – | 45.66 | 2.27 | 1.12 | – | Cc1c(CC(=O)N[C@@H](CO)c2ccc(C#N)cc2F)c(=O)[nH]c2ccc(C#N)nc12 [compound 221]
10 | – | – | – | 100.00 | 0.04 | 0.11 | – | Cc1c(CC(=O)N[C@@H](C)c2ccc(F)cc2F)c(=O)[nH]c2ccc(OC(F)(F)F)nc12 [compound 359]
11 | – | – | – | 0.57 | 0.26 | 1.00 | – | Cc1cc(C#N)nnc1[C@@H](C)NC(=O)Cc1c(C)c2c(C)nccc2[nH]c1=O [compound 489]
12 | – | – | – | 80.59 | 16.64 | 2.60 | – | Cc1c(CC(=O)N[C@@H](C)c2ncc(F)cc2F)c(=O)[nH]c2ccc(C#N)nc12 (single isomer, unassigned) [compound 250]
13 | – | – | – | 39.76 | 2.98 | 100.00 | – | C[C@H](NC(=O)Cc1cc2c(C#N)nccc2[nH]c1=O)c1ccc(F)cn1 [compound 475]
14 | – | – | – | 0.09 | 0.01 | 0.05 | – | Cc1nccc2[nH]c(=O)c(CC(=O)N[C@@H](C)c3ccc(C#N)cc3F)c(Cl)c12 [compound 152]
15 | 100.00 | 100.00 | 18.28 | – | – | – | – | C[C@@H](NC(=O)Cc1cc2cc(F)ccc2[nH]c1=O)c1ccc(C#N)cn1 [compound 1125]
16 | 100.00 | 100 | 100.00 | – | – | – | – | Cc1c(CC(=O)N[C@@H]2COCc3cc(C#N)cnc32)c(=O)[nH]c2ccc(F)cc12 [compound 1056]
17 | 76 | 7.39 | 18.0 | – | – | – | – | Cc1c(CC(=O)N[C@@H](C)c2ncc(C#N)cn2)c(=O)[nH]c2cc(F)ccc12 [compound 1041]
18 | – | – | – | 100.00 | 100.00 | 100.00 | – | Cc1nccc2[nH]c(=O)c(CC(=O)N[C@@H](C)c3ncccc3F)c(C)c12 (single isomer, unassigned) [compound 268]
19 | 1.53 | 0.16 | 0.60 | – | – | – | – | Cc1c(C(F)(F)C(=O)N[C@@H](C)c2ncc(C#N)cn2)c(=O)[nH]c2ccc(F)c(C(F)(F)F)c12 (single isomer, unassigned) [Compound 2514]
20 | – | – | – | 36.08 | 0.29 | 2.23 | – | C[C@H](NC(=O)[C@@H](C)c1cc2c(F)nccc2[nH]c1=O)c1ccc(F)cc1F (single isomer, unassigned) [compound 367]
21 | – | – | – | 0.30 | 0.02 | 0.22 | – | Cc1c([C@@H](C)C(=O)N[C@@H](C)c2ccc(C#N)cc2F)c(=O)[nH]c2ccnc(C#N)c12 (single isomer, unassigned) [compound 173]

Reference: patent publication US12448369B2 (Edgewise Therapeutics, Inc., priority 2023, dated 2025)
